According to patent US7655598B2, “Herbicide composition” (Sumitomo Chemical Company, Limited, priority 2001, dated 2010):

Tested on: sickle pod
Assay: Test Example 1: foliar spray herbicide effect on sickle pod in greenhouse pots
Format: in vivo, sickle pod (Cassia obtusifolia)
Settings: evaluated 5 days after treatment, scale 0-10
Description: Evaluation of phytotoxicity against a crop was shown by “no” when almost no phytotoxicity was observed, “low” when a low level phytotoxicity was observed, “medium” when a medium level phytotoxicity was observed and “high” when a high level phytotoxicity was observed.
A plastic pot of 11 cm in diameter and 8 cm in depth was filled with field soil. A seed of sickle pod was sown and grown in a greenhouse for 28 days.
An emulsion of Compound A-1 was prepared by sufficiently mixing 5 parts of Compound A-1, 6 parts of Sorpol 3005X (surfactant, produced by Toho Chemical) and 89 parts of xylene.
Each of • single use of an emulsion of Compound A-1, • single use of an emulsion of Oxyfluorfen (commercial name: Goal, produced by Rohm & Hass Co., containing 23% of Oxyfluorfen), and • a mixed composition of an emulsion of Compound A-1 and an emulsion of Oxyfluorfen, • were diluted with water containing 1% Agri-dex (produced by Helena). Respective dilutions were uniformly sprayed from upper side onto foliages of sickle pod grown as described above with a small sprayer such that the amounts of the active ingredients were the amounts shown in Table 4.
After the treatment, they were raised in a greenhouse for 5 days and the effect against weeds was evaluated.

## CCOc1cc(Oc2ccc(C(F)(F)F)cc2Cl)ccc1[N+](=O)[O-] [Oxyfluorfen, 2-chloro-1-(3-ethoxy-4-nitrophenoxy)-4-(trifluoromethyl)benzen]
500 g/ha active ingredient
  Herbicide Effect sickle pod: 3
2000 g/ha active ingredient
  Herbicide Effect sickle pod: 3
